Values of other authors in EP2103596A1, “Process for the preparation of N-(phenylethyl) anilines salts and solvates thereof useful as serotonin 5-HT6 antagonists” (priority 2008, dated 2009).
Read-outs that look alike come from different tables or passages of the source.

Assays:
CYP2D6 = CYP2D6 (Homo sapiens, UniProt P10635)
[1] = mice, sub-chronic dosing (10 and 30 mg/kg qd, i.p.)
[2] = system: more than 70 tested receptors; conditions: selectivity versus more than 70 tested receptors
[3] = rats, sub-chronic dosing (10 and 30 mg/kg qd, i.p.)

CYP2D6, sequence (P10635 whole entry): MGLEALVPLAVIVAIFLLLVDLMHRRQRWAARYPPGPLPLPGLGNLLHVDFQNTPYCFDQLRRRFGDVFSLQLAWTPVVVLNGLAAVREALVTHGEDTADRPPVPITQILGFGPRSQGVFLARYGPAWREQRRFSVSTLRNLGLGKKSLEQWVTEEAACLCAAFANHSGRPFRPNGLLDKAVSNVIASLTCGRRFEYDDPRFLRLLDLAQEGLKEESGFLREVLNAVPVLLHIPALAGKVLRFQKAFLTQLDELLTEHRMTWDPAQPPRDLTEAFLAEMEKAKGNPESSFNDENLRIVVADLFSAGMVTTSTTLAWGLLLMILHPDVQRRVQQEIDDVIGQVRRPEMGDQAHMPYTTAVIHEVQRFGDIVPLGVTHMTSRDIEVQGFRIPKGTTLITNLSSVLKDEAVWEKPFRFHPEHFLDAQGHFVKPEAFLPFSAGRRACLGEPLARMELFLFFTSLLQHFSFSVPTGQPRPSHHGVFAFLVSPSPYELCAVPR

COc1cc(Cl)cc(C(C)Nc2cc(N3CCNCC3)ccc2S(C)(=O)=O)c1OC.Cl (stereo not shown) [Compound A, [1-(5-Chloro-2,3-dimethoxy-phenyl)-ethyl]-(2-methanesulfonyl-5-piperazin-1-yl-phenyl)-amine hydrochloride salt]
stability (HLM): > 90 min
IC50 (CYP2D6): 7.8 µM
body weight [1]: significant reduction
food intake [1]: significant reduction
safety margin [2]: > 100 fold
body weight [3]: significant reduction
food intake [3]: significant reduction
